Holding throughout (format): biochemical
The target of assay [1] is human JAK1 (a.a. 837-1142). The experiment in a line: In vitro JAK kinase assay (HTRF, phosphorylation of a biotinylated peptide), JAK1. The settings on record: ratio of JAK2 IC50 to JAK1 IC50, measured at 1 mM ATP. In outline: (§1)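 N-terminal His-tagged catalytic domains, baculovirus-expressed in insect cells, phosphorylated a biotinylated peptide for 1 hr at room temperature. EDTA stop was followed by SA-APC and Eu-Py20 antibody for 40 minutes, with phosphopeptide read by HTRF.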
Background: TR-FRET usually uses a lanthanide donor and a delayed reading to cut background.

The target of assay [2] is human JAK1 (a.a. 837-1142) (Homo sapiens, UniProt P23458). The description is as above. The note with it: measured at 1 mM ATP. The essentials: as §1
The target in assay [3] is Jak2 (a.a. 828-1132) (Homo sapiens (Human), UniProt O60674). The experiment in a line: In vitro JAK kinase assay (HTRF, phosphorylation of a biotinylated peptide), JAK2. The note with it: measured at 1 mM ATP. In outline:
as §1

Sequence of Jak2 (a.a. 828-1132) (O60674 828-1132): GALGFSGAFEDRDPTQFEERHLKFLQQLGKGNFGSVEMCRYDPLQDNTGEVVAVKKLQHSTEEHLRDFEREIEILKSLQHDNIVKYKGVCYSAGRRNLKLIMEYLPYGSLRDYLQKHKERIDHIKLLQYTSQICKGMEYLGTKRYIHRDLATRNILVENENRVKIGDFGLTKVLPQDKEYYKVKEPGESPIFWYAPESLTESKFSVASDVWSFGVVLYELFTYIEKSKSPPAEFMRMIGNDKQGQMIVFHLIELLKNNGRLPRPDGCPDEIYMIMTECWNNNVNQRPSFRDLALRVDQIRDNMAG

For the compound `N#CCC1(n2cc(-c3ncnc4[nH]ccc34)cn2)CN(C2CCN(C(=O)Nc3ccccc3Cl)CC2)C1` [Example 163, N-(2-chlorophenyl)-4-{3-(cyanomethyl)-3-[4-(7H-pyrrolo[2,3-d]pyrimidin-4-yl)-1H-pyrazol-1-yl]azetidin-1-yl}piperidine-1-carboxamide], in assay [1], the “IC50 Ratio JAK2/JAK1” value was 12.0. The IC50 (in general, the concentration that inhibits the measured activity by half) in assay [2] is ≤ 5 nM; in assay [3], 10 to 50 nM.

As for `N#CCC1(n2cc(-c3ncnc4[nH]ccc34)cn2)CN(C2CCN(C(=O)c3cc4ccc(C(F)(F)F)cc4s3)CC2)C1` [Example 94, [3-[4-(7H-pyrrolo[2,3-d]pyrimidin-4-yl)-1H-pyrazol-1-yl]-1-(1-{[6-(trifluoromethyl)-1-benzothien-2-yl]carbonyl}piperidin-4-yl)azetidin-3-yl]acetonitrile], the “IC50 Ratio JAK2/JAK1” value in assay [1] was determined as 1.0. Besides, the IC50 in assay [2] fell in the range of 5 to 20 nM; in assay [3], 10 to 50 nM.

With `COc1ccc2nc(Cl)c(CN3CCC(N4CC(CC#N)(n5cc(-c6ncnc7[nH]ccc67)cn5)C4)CC3)cc2c1` [Example 238, {1-{1-[(2-chloro-6-methoxyquinolin-3-yl)methyl]piperidin-4-yl}-3-[4-(7H-pyrrolo[2,3-d]pyrimidin-4-yl)-1H-pyrazol-1-yl]azetidin-3-yl}acetonitrile], the “IC50 Ratio JAK2/JAK1” value in assay [1] amounted to 6.8. Also, the IC50 in assay [2] was ≤ 5 nM; in assay [3], 10 to 50 nM.

As for `N#CCC1(n2cc(-c3ncnc4[nH]ccc34)cn2)CN(C2CCN(Cc3c(F)cccc3C(F)(F)F)CC2)C1` [Example 213, {1-{1-[2-fluoro-6-(trifluoromethyl)benzyl]piperidin-4-yl}-3-[4-(7H-pyrrolo[2,3-d]pyrimidin-4-yl)-1H-pyrazol-1-yl]azetidin-3-yl}acetonitrile], the “IC50 Ratio JAK2/JAK1” value in assay [1] is reported as 9.7. Besides, the figures for the IC50 in assay [2] and in assay [3] were ≤ 5 nM and 10 to 50 nM, respectively.

`CN(C)Cc1cc(C(=O)N2CCC(N3CC(CC#N)(n4cc(-c5ncnc6[nH]ccc56)cn4)C3)CC2)cc(C(F)F)c1` [Example 375, {1-(1-{3-(difluoromethyl)-5-[(dimethylamino)methyl]benzoyl}piperidin-4-yl)-3-[4-(7H-pyrrolo[2,3-d]pyrimidin-4-yl)-1H-pyrazol-1-yl]azetidin-3-yl}acetonitrile]: in assay [1], the “IC50 Ratio JAK2/JAK1” value was 12.7. Also, the figures for the IC50 in assay [2] and in assay [3] were ≤ 5 nM and 10 to 50 nM, respectively.

Regarding `N#CCC1(n2cc(-c3ncnc4[nH]ccc34)cn2)CN(C2CCN(S(=O)(=O)C3CCCC3)CC2)C1` [Example 253, {1-[1-(cyclopentylsulfonyl)piperidin-4-yl]-3-[4-(7H-pyrrolo[2,3-d]pyrimidin-4-yl)-1H-pyrazol-1-yl]azetidin-3-yl}acetonitrile], in assay [1], the “IC50 Ratio JAK2/JAK1” value was determined as 5.8. Besides, the IC50 in assay [2] is ≤ 5 nM; in assay [3], ≤ 10 nM.

Turning to `N#CCC1(n2ccc(-c3ncnc4[nH]ccc34)c2)CN(C2CCN(C(=O)c3ccc(C(F)(F)F)cc3F)CC2)C1` [Example 272, {1-{1-[2-fluoro-4-(trifluoromethyl)benzoyl]piperidin-4-yl}-3-[3-(7H-pyrrolo[2,3-d]pyrimidin-4-yl)-1H-pyrrol-1-yl]azetidin-3-yl}acetonitrile], the “IC50 Ratio JAK2/JAK1” value in assay [1] was 6.5. The values for the IC50 in assay [2] and in assay [3] were 5 to 20 nM and 10 to 50 nM, respectively.

With `N#CCC1(n2cc(-c3ncnc4[nH]ccc34)cn2)CN(C2CCN(C(=O)Nc3ccc(F)c(F)c3)CC2)C1` [Example 176, 4-{3-(cyanomethyl)-3-[4-(7H-pyrrolo[2,3-d]pyrimidin-4-yl)-1H-pyrazol-1-yl]azetidin-1-yl}-N-(3,4-difluorophenyl)piperidine-1-carboxamide], the “IC50 Ratio JAK2/JAK1” value in assay [1] is listed as 5.1. The values for the IC50 in assay [2] and in assay [3] were ≤ 5 nM and ≤ 10 nM, respectively.

Regarding `CCCOC(=O)N1CCC(N2CC(CC#N)(n3cc(-c4ncnc5[nH]ccc45)cn3)C2)CC1` [Example 386, Propyl 4-{3-(cyanomethyl)-3-[4-(7H-pyrrolo[2,3-d]pyrimidin-4-yl)-1H-pyrazol-1-yl]azetidin-1-yl}piperidine-1-carboxylate], the “IC50 Ratio JAK2/JAK1” value in assay [1] turned out to be 7.7. Besides, the IC50 is ≤ 5 nM in assay [2] and 10 to 50 nM in assay [3].

Consider `N#CCC1(n2cc(-c3ncnc4[nH]ccc34)cn2)CN(C2CC3CCC(C2)N3C(=O)c2ccc(F)c(F)c2)C1` (stereo not drawn) [Example 139, {1-[8-(3,4-difluorobenzoyl)-8-azabicyclo[3.2.1]oct-3-yl]-3-[4-(7H-pyrrolo[2,3-d]pyrimidin-4-yl)-1H-pyrazol-1-yl]azetidin-3-yl}acetonitrile], for which, in assay [1], the “IC50 Ratio JAK2/JAK1” value was determined as 4.4. Further, the IC50 is ≤ 5 nM in assay [2] and ≤ 10 nM in assay [3].

`N#CCC1(n2cc(-c3c(F)cnc4[nH]ccc34)cn2)CN(C2CCN(C(=O)C3CCC(F)(F)CC3)CC2)C1` [Example 327, {1-{1-[(4,4-difluorocyclohexyl)carbonyl]piperidin-4-yl}-3-[4-(5-fluoro-1H-pyrrolo[2,3-b]pyridine-4-yl)-1H-pyrazol-1-yl]azetidin-3-yl}acetonitrile]: the “IC50 Ratio JAK2/JAK1” value in assay [1] was 4.1. The results for the IC50 in assay [2] and in assay [3] were 5 to 20 nM and 50 to 100 nM, respectively.

On to `N#CCC1(n2cc(-c3c(F)cnc4[nH]ccc34)cn2)CN(C2CCN(C(=O)Nc3ccncc3C(F)(F)F)CC2)C1` [Example 331, 4-{3-(cyanomethyl)-3-[4-(5-fluoro-1H-pyrrolo[2,3-b]pyridin-4-yl)-1H-pyrazol-1-yl]azetidin-1-yl}-N-[3-(trifluoromethyl)pyridin-4-yl]piperidine-1-carboxamide], for which, in assay [1], the “IC50 Ratio JAK2/JAK1” value was found to be 10.8. Also, the IC50 in assay [2] is ≤ 5 nM; in assay [3] it was 10 to 50 nM.

`N#CCC1(n2cc(-c3ncnc4[nH]ccc34)cn2)CN(C2CCN(C(=O)c3ccc(-c4cccnc4)c(F)c3)CC2)C1` [Example 123, {1-[1-(3-fluoro-4-pyridin-3-ylbenzoyl)piperidin-4-yl]-3-[4-(7H-pyrrolo[2,3-d]pyrimidin-4-yl)-1H-pyrazol-1-yl]azetidin-3-yl}acetonitrile]: the “IC50 Ratio JAK2/JAK1” value in assay [1] stood at 3.8. Further, the figures for the IC50 in assay [2] and in assay [3] were ≤ 5 nM and ≤ 10 nM, respectively.

Regarding `CCN(C)Cc1cc(C(=O)N2CCC(N3CC(CC#N)(n4cc(-c5ncnc6[nH]ccc56)cn4)C3)CC2)nc(C(F)(F)F)n1` [Example 374, {1-(1-{[6-{[ethyl(methyl)amino]methyl}-2-(trifluoromethyl)pyrimidin-4-yl]carbonyl}piperidin-4-yl)-3-[4-(7H-pyrrolo[2,3-d]pyrimidin-4-yl)-1H-pyrazol-1-yl]azetidin-3-yl}acetonitrile], the “IC50 Ratio JAK2/JAK1” value in assay [1] worked out at 50. Further, the IC50 in assay [2] is ≤ 5 nM; in assay [3] it was 10 to 50 nM.

For `N#CCC1(n2cc(-c3ncnc4[nH]ccc34)cn2)CN(C2CCN(C(=O)c3cc(C(F)(F)F)ncc3Cl)CC2)C1` [Example 342, {1-{1-[5-Chloro-2-(trifluoromethyl)isonicotinoyl]piperidin-4-yl}-3-[4-(7H-pyrrolo[2,3-d]pyrimidin-4-yl)-1H-pyrazol-1-yl]azetidin-3-yl}acetonitrile], the “IC50 Ratio JAK2/JAK1” value in assay [1] is 5.7. The values for the IC50 in assay [2] and in assay [3] were ≤ 5 nM and 10 to 50 nM, respectively.

For `N#CCC1(n2cc(-c3ncnc4[nH]ccc34)cn2)CN(C2CCN(C(=O)c3cc(Cl)sc3Cl)CC2)C1` [Example 30, {1-{1-[(2,5-dichloro-3-thienyl)carbonyl]piperidin-4-yl}-3-[4-(7H-pyrrolo[2,3-d]pyrimidin-4-yl)-1H-pyrazol-1-yl]azetidin-3-yl}acetonitrile], in assay [1], the “IC50 Ratio JAK2/JAK1” value was 2.8. Besides, the IC50 is ≤ 5 nM in assay [2] and ≤ 10 nM in assay [3].

For `N#CCC1(n2cc(-c3ncnc4[nH]ccc34)cn2)CN(C2CCN(S(=O)(=O)c3cccc(C#N)c3)CC2)C1` [Example 248, 3-[(4-{3-(cyanomethyl)-3-[4-(7H-pyrrolo[2,3-d]pyrimidin-4-yl)-1H-pyrazol-1-yl]azetidin-1-yl}piperidin-1-yl)sulfonyl]benzonitrile], the “IC50 Ratio JAK2/JAK1” value in assay [1] was determined as 5.2. Further, the IC50 in assay [2] was 20 to 30 nM; in assay [3] it was > 100 nM.

As to `N#CCC1(n2ccc(-c3ncnc4[nH]ccc34)c2)CN(C2CCN(C(=O)Nc3ncccc3F)CC2)C1` [Example 292, 4-{3-(cyanomethyl)-3-[3-(7H-pyrrolo[2,3-d]pyrimidin-4-yl)-1H-pyrrol-1-yl]azetidin-1-yl}-N-(3-fluoropyridin-2-yl)piperidine-1-carboxamide], in assay [1], the “IC50 Ratio JAK2/JAK1” value turned out to be 9.1. The values for the IC50 in assay [2] and in assay [3] were ≤ 5 nM and 10 to 50 nM, respectively.

As to `N#CCC1(n2cc(-c3ncnc4[nH]ccc34)cn2)CN(C2CCN(C(=O)Nc3cccc(Cl)c3F)CC2)C1` [Example 177, N-(3-chloro-2-fluorophenyl)-4-{3-(cyanomethyl)-3-[4-(7H-pyrrolo[2,3-d]pyrimidin-4-yl)-1H-pyrazol-1-yl]azetidin-1-yl}piperidine-1-carboxamide], the “IC50 Ratio JAK2/JAK1” value in assay [1] is reported as 8.5. In addition, the IC50 in assay [2] was ≤ 5 nM; in assay [3] it was ≤ 10 nM.

As to `COc1ccc(OC)c(NC(=O)N2CCC(N3CC(CC#N)(n4cc(-c5ncnc6[nH]ccc56)cn4)C3)CC2)c1` [Example 186, 4-{3-(cyanomethyl)-3-[4-(7H-pyrrolo[2,3-d]pyrimidin-4-yl)-1H-pyrazol-1-yl]azetidin-1-yl}-N-(2,5-dimethoxyphenyl)piperidine-1-carboxamide], in assay [1], the “IC50 Ratio JAK2/JAK1” value is 5.5. In addition, the figures for the IC50 in assay [2] and in assay [3] were ≤ 5 nM and 10 to 50 nM, respectively.

As for `N#CCC1(n2cc(-c3ncnc4[nH]ccc34)cn2)CN(C2CCN(C(=O)c3cc(F)cc(C(F)(F)F)c3)CC2)C1` [Example 23, {1-{1-[3-fluoro-5-(trifluoromethyl)benzoyl]piperidin-4-yl}-3-[4-(7H-pyrrolo[2,3-d]pyrimidin-4-yl)-1H-pyrazol-1-yl]azetidin-3-yl}acetonitrile], the “IC50 Ratio JAK2/JAK1” value in assay [1] is 6.7. The IC50 was ≤ 5 nM in assay [2] and 10 to 50 nM in assay [3].

Values taken from patent publication US9999619B2, “Piperidin-4-yl azetidine derivatives as JAK1 inhibitors” (Incyte Corporation, priority 2010, dated 2018).
